Data as given in ChEMBL document CHEMBL1156829 (Proc Natl Acad Sci U S A, 2008).

What was measured:
Plasmodium falciparum [1] = assay: NOVARTIS: Inhibition of Plasmodium falciparum 3D7 (drug-susceptible) proliferation in erythrocyte-based infection assay; format: functional, organism-based; conditions: Plasmodium falciparum, 3D7
Plasmodium falciparum [2] = assay: NOVARTIS: Inhibition of Plasmodium falciparum W2 (drug-resistant) proliferation in erythrocyte-based infection assay; format: functional, organism-based; conditions: Plasmodium falciparum, W2; read-out: EC50
[3] = NOVARTIS: Cytotoxicity against human hepatocellular carcinoma cell line (Huh7); format: toxicity, cell-based, Huh-7; conditions: Huh7 cells (hepatocellular carcinoma cell line)

CN1CCN(c2ccc(Nc3ccnc4ccccc34)cc2)CC1
EC50 (Plasmodium falciparum [1]): 0.22 µM
EC50 (Plasmodium falciparum [2]): 0.237 µM
CC50 [3]: > 10 µM

COc1ccc(C(=O)N2C(C(=O)Nc3ccccc3F)CSC2c2ccc(C(C)(C)C)cc2)cc1 (stereo not drawn)
EC50 (Plasmodium falciparum [1]): 0.94 µM
EC50 (Plasmodium falciparum [2]): 0.801 µM
CC50 [3]: > 3.6 µM

Oc1ccc(-c2ccc3c(c2)OCO3)cc1CNCC1CC2C=CC1C21CC1 (stereo not drawn)
EC50 (Plasmodium falciparum [1]): 1.11 µM
EC50 (Plasmodium falciparum [2]): 0.274 µM
CC50 [3]: > 100 µM

CCOc1ccccc1C1NC(=O)NC(C)=C1C(=O)OCC(F)(F)C(F)(F)F (stereo not drawn)
EC50 (Plasmodium falciparum [1]): > 1.25 µM
EC50 (Plasmodium falciparum [2]): > 0.913 µM
CC50 [3]: > 10 µM

CC(C)(C)CC(C)(C)Nc1c(-c2ccccc2OC(=O)c2cccc(C(F)(F)F)c2)nc2ccccn12
EC50 (Plasmodium falciparum [1]): 0.957 µM
EC50 (Plasmodium falciparum [2]): 0.134 µM
CC50 [3]: > 10 µM

Cc1ccc(Cn2c(=N)n(CC(O)c3ccc(Cl)c(Cl)c3)c3ccccc32)cc1 (stereo not drawn)
EC50 (Plasmodium falciparum [1]): 0.107 µM
EC50 (Plasmodium falciparum [2]): 0.0613 µM
CC50 [3]: 6 µM

CCCCCCOc1ccc(NC(=O)c2cccs2)cc1
EC50 (Plasmodium falciparum [1]): 0.396 µM
EC50 (Plasmodium falciparum [2]): 0.972 µM
CC50 [3]: > 100 µM

Cc1nc(-c2ccc[n+](C)c2)sc1C(=O)/C=C/c1ccc(Cl)cc1
EC50 (Plasmodium falciparum [1]): 0.283 µM
EC50 (Plasmodium falciparum [2]): 0.2 µM
CC50 [3]: > 10 µM

COc1cccc2c(C)nc(N=C(N)N)nc12
EC50 (Plasmodium falciparum [1]): 0.291 µM
EC50 (Plasmodium falciparum [2]): 0.688 µM
CC50 [3]: 53.5 µM

OC1=C2C(=Nc3ccccc3SC2c2ccco2)c2ccccc21 (stereo not drawn)
EC50 (Plasmodium falciparum [1]): 0.251 µM
EC50 (Plasmodium falciparum [2]): 0.35 µM
CC50 [3]: 55.3 µM

COc1ccccc1C(=O)N1CCN(Cc2ccc3ccccc3c2)CC1
EC50 (Plasmodium falciparum [1]): > 12.5 µM
EC50 (Plasmodium falciparum [2]): 4.86 µM
CC50 [3]: > 100 µM

COc1ccc2c(c1)C(C)=CC(C)(C)N2C(=O)CSc1nnc(-c2ccc(C)cc2)o1
EC50 (Plasmodium falciparum [1]): 0.467 µM
EC50 (Plasmodium falciparum [2]): > 1.25 µM
CC50 [3]: > 10 µM

CCC(C)NC(=O)c1cc(NC(=O)c2cccc(Cl)c2)ccc1N1CCCCC1 (stereo not drawn)
EC50 (Plasmodium falciparum [1]): > 1.61 µM
EC50 (Plasmodium falciparum [2]): 0.194 µM
CC50 [3]: 15.4 µM

COc1ccc(-n2cc(-c3ccccc3)[n+]3c2SCC3)cc1
EC50 (Plasmodium falciparum [1]): 0.527 µM
EC50 (Plasmodium falciparum [2]): 0.647 µM
CC50 [3]: > 10 µM

CCN1CCN(c2cc(C)c3cc(NC(=O)/C=C/c4cc(OC)ccc4OC)ccc3n2)CC1
EC50 (Plasmodium falciparum [1]): 0.397 µM
EC50 (Plasmodium falciparum [2]): > 1.25 µM
CC50 [3]: > 10 µM

CCOc1cc(-c2nnc3[nH]c(=O)n(C)c(=O)c3n2)ccc1OC(C)C
EC50 (Plasmodium falciparum [1]): 1.1 µM
EC50 (Plasmodium falciparum [2]): 0.394 µM
CC50 [3]: > 100 µM

C[N+](C)(C)c1nc(N2CCOCC2)nc(N(c2ccccc2)c2ccccc2)n1
EC50 (Plasmodium falciparum [1]): 0.0632 µM
EC50 (Plasmodium falciparum [2]): 0.179 µM
CC50 [3]: > 10 µM

COc1ccc(C2CC(=O)C3=C(C2)NC(C)=C(C(=O)OC2CCCC2)C3c2ccc(OC)cc2)cc1 (stereo not drawn)
EC50 (Plasmodium falciparum [1]): 3.26 µM
EC50 (Plasmodium falciparum [2]): 0.649 µM
CC50 [3]: > 100 µM

CN(C)C(=O)C1C2NC(=S)N(c3ccccc3)C1(C)Oc1ccccc12 (stereo not drawn)
EC50 (Plasmodium falciparum [1]): 1.75 µM
EC50 (Plasmodium falciparum [2]): 0.483 µM
CC50 [3]: > 10 µM

CCC(c1nc2ccccc2c(=O)n1-c1ccc(F)c(Cl)c1)N(CCc1ccccc1)C(=O)COc1ccccc1 (stereo not drawn)
EC50 (Plasmodium falciparum [1]): 1.19 µM
EC50 (Plasmodium falciparum [2]): > 0.492 µM
CC50 [3]: > 6.28 µM

c1ccc(CCc2nc3cccnc3n2C2CCN(C3CCN(Cc4ccccc4)CC3)CC2)cc1
EC50 (Plasmodium falciparum [1]): 0.153 µM
EC50 (Plasmodium falciparum [2]): 0.175 µM
CC50 [3]: 81.4 µM

C[n+]1cccc2ccc3cccnc3c21
EC50 (Plasmodium falciparum [1]): 0.0664 µM
EC50 (Plasmodium falciparum [2]): 0.14 µM
CC50 [3]: > 8.03 µM

COC(=O)c1c(-c2c(F)cccc2Cl)noc1C=CNc1ccc(OC)cc1
EC50 (Plasmodium falciparum [1]): 10.2 µM
EC50 (Plasmodium falciparum [2]): 5.29 µM
CC50 [3]: > 100 µM

CC(C)C(=O)NC(Nc1ccc([N+](=O)[O-])cc1)C(Cl)(Cl)Cl (stereo not drawn)
EC50 (Plasmodium falciparum [1]): 0.195 µM
EC50 (Plasmodium falciparum [2]): 0.104 µM
CC50 [3]: 68.3 µM

COc1ccc(C=NNc2cc(C)nc3ccc(OC)cc23)c(OC)c1
EC50 (Plasmodium falciparum [1]): 0.0331 µM
EC50 (Plasmodium falciparum [2]): 0.0435 µM
CC50 [3]: 6.69 µM

CN(C)c1ccc(-c2cc(-c3ccccc3)[s+]c(-c3ccccc3)c2)cc1
EC50 (Plasmodium falciparum [1]): 0.318 µM
EC50 (Plasmodium falciparum [2]): 0.0737 µM
CC50 [3]: 1.69 µM

O=S(=O)(c1ccc(Cl)cc1)N1CCN(C(=S)NCC2CCCO2)CC1 (stereo not drawn)
EC50 (Plasmodium falciparum [1]): 0.653 µM
EC50 (Plasmodium falciparum [2]): 0.149 µM
CC50 [3]: > 100 µM

CC1CCC(Nc2ccnc3cc(Cl)ccc23)CC1 (stereo not drawn)
EC50 (Plasmodium falciparum [1]): 0.843 µM
EC50 (Plasmodium falciparum [2]): 0.933 µM
CC50 [3]: > 10 µM

COc1cc(NC(C)CCCN(Cc2ccc(OC)c(OC)c2)C(=O)NC2CCCCC2)c2ncccc2c1 (stereo not drawn)
EC50 (Plasmodium falciparum [1]): 0.676 µM
EC50 (Plasmodium falciparum [2]): 0.337 µM
CC50 [3]: 1.3 µM

CN(CCCNc1ccnc2cc(Cl)ccc12)S(=O)(=O)c1cccc2cccnc12
EC50 (Plasmodium falciparum [1]): 0.188 µM
EC50 (Plasmodium falciparum [2]): 0.249 µM
CC50 [3]: > 10 µM

CSc1nnc(CN2CCSCC2)n1C
EC50 (Plasmodium falciparum [1]): 2.03 µM
EC50 (Plasmodium falciparum [2]): > 1.25 µM
CC50 [3]: > 10 µM

CNCC(O)c1ccc(Cl)c(Cl)c1 (stereo not drawn)
EC50 (Plasmodium falciparum [1]): 0.837 µM
EC50 (Plasmodium falciparum [2]): 0.0991 µM
CC50 [3]: > 10 µM

CC(C)(C)c1ccc(-c2nc(C34CC5CC(CC(C5)C3)C4)cs2)cc1
EC50 (Plasmodium falciparum [1]): > 12.5 µM
EC50 (Plasmodium falciparum [2]): 1.65 µM
CC50 [3]: > 100 µM

FC(F)(F)c1cccc(-c2cc(NCCCn3ccnc3)nc(-c3ccncc3)n2)c1
EC50 (Plasmodium falciparum [1]): 0.204 µM
EC50 (Plasmodium falciparum [2]): 0.186 µM
CC50 [3]: > 7.72 µM

Cc1ccc(C(C(=O)NC2CCCCC2)N(C(=O)Cn2nnc3ccccc32)c2ccc(S(=O)(=O)NCC3CCCO3)cc2)o1 (stereo not drawn)
EC50 (Plasmodium falciparum [1]): > 12.3 µM
EC50 (Plasmodium falciparum [2]): 1.91 µM
CC50 [3]: > 100 µM

Cc1cccc(-n2ccnc2SCC(=O)Nc2cc(C(F)(F)F)ccc2Cl)c1
EC50 (Plasmodium falciparum [1]): 0.541 µM
EC50 (Plasmodium falciparum [2]): 1.47 µM
CC50 [3]: > 100 µM

C=CCNC(=S)N1CCN(c2ccc([N+](=O)[O-])cc2)CC1
EC50 (Plasmodium falciparum [1]): 2.37 µM
EC50 (Plasmodium falciparum [2]): > 1.25 µM
CC50 [3]: > 10 µM

Oc1ccc(-c2cccnc2)cc1CNC1C2CC3CC(C2)CC1C3 (stereo not drawn)
EC50 (Plasmodium falciparum [1]): 0.459 µM
EC50 (Plasmodium falciparum [2]): 0.195 µM
CC50 [3]: > 100 µM

CC(C)C(=O)NC(Nc1cccc([N+](=O)[O-])c1)C(Cl)(Cl)Cl (stereo not drawn)
EC50 (Plasmodium falciparum [1]): 1.56 µM
EC50 (Plasmodium falciparum [2]): 1.2 µM
CC50 [3]: > 100 µM

Cc1cc(C)nc(SCc2cc(=O)c(OC(=O)c3cccc([N+](=O)[O-])c3C)co2)n1
EC50 (Plasmodium falciparum [1]): > 12.5 µM
EC50 (Plasmodium falciparum [2]): > 7.47 µM
CC50 [3]: > 100 µM

COC(C)(C)CNCc1cc2cc3c(cc2n(Cc2cccc(C(F)(F)F)c2)c1=O)CCC3
EC50 (Plasmodium falciparum [1]): > 1.25 µM
EC50 (Plasmodium falciparum [2]): > 0.198 µM
CC50 [3]: > 10 µM

C=C[C@H]1CN2CC[C@H]1C[C@@H]2[C@@H](O)c1ccnc2ccc(OC)cc12 [QUINIDINE]
EC50 (Plasmodium falciparum [1]): 0.00959 µM
EC50 (Plasmodium falciparum [2]): 0.0352 µM
CC50 [3]: 50.8 µM

Oc1ccc(-c2ccccn2)cc1CNC1CCN(Cc2ccccc2)CC1
EC50 (Plasmodium falciparum [1]): 0.411 µM
EC50 (Plasmodium falciparum [2]): 0.143 µM
CC50 [3]: 21 µM

Cc1ccn2c(NC(C)(C)CC(C)(C)C)c(-c3ccccc3OC(=O)C(c3ccccc3)c3ccccc3)nc2c1
EC50 (Plasmodium falciparum [1]): 0.746 µM
EC50 (Plasmodium falciparum [2]): 0.0718 µM
CC50 [3]: > 1.12 µM

COC(=O)C1=C(C)N(C)C(C)=C(C(=O)OC)C1c1ccc([N+](=O)[O-])cc1
EC50 (Plasmodium falciparum [1]): 0.633 µM
EC50 (Plasmodium falciparum [2]): 2.26 µM
CC50 [3]: > 100 µM

CN(C)CCNc1ccc2ncc(-c3ccsc3)n2n1
EC50 (Plasmodium falciparum [1]): > 1.25 µM
EC50 (Plasmodium falciparum [2]): > 0.846 µM
CC50 [3]: > 10 µM

c1ccc2c(NC3CCCC3)nc(Nc3ccc4c(c3)OCO4)nc2c1
EC50 (Plasmodium falciparum [1]): 0.525 µM
EC50 (Plasmodium falciparum [2]): 0.753 µM
CC50 [3]: 12.8 µM

CCCCCCc1cc(O)c2c(c1)OC(C)(C)C1=C2CCN(C)C1
EC50 (Plasmodium falciparum [1]): 0.0484 µM
EC50 (Plasmodium falciparum [2]): 0.0313 µM
CC50 [3]: 20.6 µM

Cc1cc(Nc2cccc(C(F)(F)F)c2)nc(N)n1
EC50 (Plasmodium falciparum [1]): 0.676 µM
EC50 (Plasmodium falciparum [2]): 1.86 µM
CC50 [3]: 39.6 µM

COc1ccc(-c2cc(C(=O)Nc3cc(Oc4ccc(NC(C)=O)cc4)cc([N+](=O)[O-])c3)c3ccccc3n2)cc1
EC50 (Plasmodium falciparum [1]): > 12.5 µM
EC50 (Plasmodium falciparum [2]): 2.11 µM
CC50 [3]: > 100 µM

Oc1ccc(-c2ccccc2)cc1CNC1CCCCC1
EC50 (Plasmodium falciparum [1]): 0.982 µM
EC50 (Plasmodium falciparum [2]): < 0.0235 µM
CC50 [3]: > 10 µM
